Test results taken from PubChem BioAssay (NCI).
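1) Cells in 96-well plates. 2) Compound, 48 h, 5 concentrations. 3) Linear interpolation between surrounding doses. 4) Unreached endpoint = highest concentration. At the GI50, growth is halved. TGI denotes the concentration required for complete inhibition of growth.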

Columns and labels:
Experiment in all cases: inhibition of tumour cell growth, NCI panel, 48 h
EKVX NSCLC = test system: EKVX NSCLC
MOLT-4 leukemia = test system: MOLT-4 leukemia
SR leukemia = test system: SR leukemia
DU-145 prostate = test system: DU-145 prostate
M14 melanoma = test system: M14 melanoma
A549 NSCLC = test system: A549 NSCLC
U251 CNS = test system: U251 CNS
OVCAR-8 ovarian = test system: OVCAR-8 ovarian
HT29 colon = test system: HT29 colon
BT-549 breast = test system: BT-549 breast
HCC-2998 colon = test system: HCC-2998 colon
SK-OV-3 ovarian = test system: SK-OV-3 ovarian
COLO 205 colon = test system: COLO 205 colon
LOX IMVI melanoma = test system: LOX IMVI melanoma
SK-MEL-5 melanoma = test system: SK-MEL-5 melanoma
SNB-19 CNS = test system: SNB-19 CNS
RXF 393 renal = test system: RXF 393 renal
UACC-257 melanoma = test system: UACC-257 melanoma
CCRF-CEM leukemia = test system: CCRF-CEM leukemia
IGROV1 ovarian = test system: IGROV1 ovarian
HCT-15 colon = test system: HCT-15 colon
NCI/ADR-RES ovarian = test system: NCI/ADR-RES ovarian
HCT-116 colon = test system: HCT-116 colon
A498 renal = test system: A498 renal
MCF7 breast = test system: MCF7 breast
CAKI-1 renal = test system: CAKI-1 renal
OVCAR-5 ovarian = test system: OVCAR-5 ovarian
NCI-H522 lung = test system: NCI-H522 lung
NCI-H460 lung = test system: NCI-H460 lung
HOP-62 NSCLC = test system: HOP-62 NSCLC
NCI-H226 lung = test system: NCI-H226 lung
ACHN renal = test system: ACHN renal
SF-295 CNS = test system: SF-295 CNS
HL-60(TB) leukemia = test system: HL-60(TB) leukemia
UO-31 renal = test system: UO-31 renal
SF-268 CNS = test system: SF-268 CNS
T-47D breast = test system: T-47D breast
SNB-75 CNS = test system: SNB-75 CNS
MDA-MB-435 = test system: MDA-MB-435
MDA-MB-468 breast = test system: MDA-MB-468 breast
SN12C renal = test system: SN12C renal
SF-539 CNS = test system: SF-539 CNS
MALME-3M melanoma = test system: MALME-3M melanoma
PC-3 prostate = test system: PC-3 prostate
TK-10 renal = test system: TK-10 renal
KM12 colon = test system: KM12 colon
HS 578T breast = test system: HS 578T breast
UACC-62 melanoma = test system: UACC-62 melanoma
MDA-MB-231 breast = test system: MDA-MB-231 breast
SK-MEL-28 melanoma = test system: SK-MEL-28 melanoma
786-0 renal = test system: 786-0 renal
SK-MEL-2 melanoma = test system: SK-MEL-2 melanoma
SW-620 colon = test system: SW-620 colon
HOP-92 NSCLC = test system: HOP-92 NSCLC
OVCAR-3 ovarian = test system: OVCAR-3 ovarian
NCI-H23 lung = test system: NCI-H23 lung
OVCAR-4 ovarian = test system: OVCAR-4 ovarian

COc1cc2c3c(n(CCCNC(C)C)c(=O)c2cc1OC)-c1nc2c(cc1C3=O)OCO2
GI50 (EKVX NSCLC): 10.7 µM | TGI (EKVX NSCLC): 23.6 µM | GI50 (MOLT-4 leukemia): 0.0457 µM | TGI (MOLT-4 leukemia): 2.13 µM | GI50 (SR leukemia): 0.359 µM | TGI (SR leukemia): 2.77 µM | GI50 (DU-145 prostate): 1.05 µM | TGI (DU-145 prostate): 16.6 µM | GI50 (M14 melanoma): 3.42 µM | TGI (M14 melanoma): 18.1 µM | GI50 (A549 NSCLC): 2.52 µM | TGI (A549 NSCLC): 24.2 µM | GI50 (U251 CNS): 0.588 µM | TGI (U251 CNS): 19.8 µM | GI50 (OVCAR-8 ovarian): 5.28 µM | TGI (OVCAR-8 ovarian): 24.9 µM | GI50 (HT29 colon): 1.35 µM | TGI (HT29 colon): 22.7 µM | GI50 (BT-549 breast): 4.17 µM | TGI (BT-549 breast): 23.1 µM | GI50 (HCC-2998 colon): 9.38 µM | TGI (HCC-2998 colon): 21.5 µM | GI50 (SK-OV-3 ovarian): 2.04 µM | TGI (SK-OV-3 ovarian): 19.2 µM | GI50 (COLO 205 colon): 3.98 µM | TGI (COLO 205 colon): 23 µM | GI50 (LOX IMVI melanoma): 1.01 µM | TGI (LOX IMVI melanoma): 2.21 µM | GI50 (SK-MEL-5 melanoma): 1.39 µM | TGI (SK-MEL-5 melanoma): 5.35 µM | GI50 (SNB-19 CNS): 2 µM | TGI (SNB-19 CNS): 18.7 µM | GI50 (RXF 393 renal): 2.26 µM | TGI (RXF 393 renal): 14.7 µM | GI50 (UACC-257 melanoma): 13.8 µM | TGI (UACC-257 melanoma): 29 µM | GI50 (CCRF-CEM leukemia): 0.0437 µM | TGI (CCRF-CEM leukemia): 1.32 µM | GI50 (IGROV1 ovarian): 14.8 µM | TGI (IGROV1 ovarian): 30.7 µM | GI50 (HCT-15 colon): 1.21 µM | TGI (HCT-15 colon): 2.61 µM | GI50 (NCI/ADR-RES ovarian): 1.52 µM | TGI (NCI/ADR-RES ovarian): 3.25 µM | GI50 (HCT-116 colon): 1.04 µM | TGI (HCT-116 colon): 2.28 µM | GI50 (A498 renal): 12.2 µM | TGI (A498 renal): 27 µM | GI50 (MCF7 breast): 0.101 µM | TGI (MCF7 breast): 3.07 µM | GI50 (CAKI-1 renal): 2.43 µM | TGI (CAKI-1 renal): 19.2 µM | GI50 (OVCAR-5 ovarian): 13 µM | TGI (OVCAR-5 ovarian): 26.3 µM | GI50 (NCI-H522 lung): 0.768 µM | TGI (NCI-H522 lung): 27.6 µM | GI50 (NCI-H460 lung): 0.294 µM | TGI (NCI-H460 lung): 11.6 µM | GI50 (HOP-62 NSCLC): 0.474 µM | TGI (HOP-62 NSCLC): 18.5 µM | GI50 (NCI-H226 lung): 2.22 µM | TGI (NCI-H226 lung): 13.3 µM | GI50 (ACHN renal): 1.5 µM | TGI (ACHN renal): 13.2 µM | GI50 (SF-295 CNS): 0.348 µM | TGI (SF-295 CNS): 15 µM | GI50 (HL-60(TB) leukemia): 3.77 µM | TGI (HL-60(TB) leukemia): 21.2 µM | GI50 (UO-31 renal): 5.86 µM | TGI (UO-31 renal): 20.4 µM | GI50 (SF-268 CNS): 1.17 µM | TGI (SF-268 CNS): 23.4 µM | GI50 (T-47D breast): 4.76 µM | TGI (T-47D breast): 28.6 µM | GI50 (SNB-75 CNS): 0.825 µM | TGI (SNB-75 CNS): 12.4 µM | GI50 (MDA-MB-435): 2.16 µM | TGI (MDA-MB-435): 10.9 µM | GI50 (MDA-MB-468 breast): 0.492 µM | TGI (MDA-MB-468 breast): 6.08 µM | GI50 (SN12C renal): 10.6 µM | TGI (SN12C renal): 23.5 µM | GI50 (SF-539 CNS): 1.52 µM | TGI (SF-539 CNS): 7.26 µM | GI50 (MALME-3M melanoma): 1.54 µM | TGI (MALME-3M melanoma): 3.01 µM | GI50 (PC-3 prostate): 2.72 µM | TGI (PC-3 prostate): 21.9 µM | GI50 (TK-10 renal): 19.6 µM | TGI (TK-10 renal): 35.4 µM | GI50 (KM12 colon): 12.8 µM | TGI (KM12 colon): 28.6 µM | GI50 (HS 578T breast): 11.8 µM | TGI (HS 578T breast): 33 µM | GI50 (UACC-62 melanoma): 9.84 µM | TGI (UACC-62 melanoma): 23.6 µM | GI50 (MDA-MB-231 breast): 1.42 µM | TGI (MDA-MB-231 breast): 2.81 µM | GI50 (SK-MEL-28 melanoma): 4.94 µM | TGI (SK-MEL-28 melanoma): 18.2 µM | GI50 (786-0 renal): 1.55 µM | TGI (786-0 renal): 2.98 µM | GI50 (SK-MEL-2 melanoma): 21.1 µM | TGI (SK-MEL-2 melanoma): 40.6 µM | GI50 (SW-620 colon): 0.724 µM | TGI (SW-620 colon): 21.3 µM | GI50 (HOP-92 NSCLC): 10.6 µM | TGI (HOP-92 NSCLC): 24.9 µM | GI50 (OVCAR-3 ovarian): 14.3 µM | TGI (OVCAR-3 ovarian): 28.3 µM | GI50 (NCI-H23 lung): 0.587 µM | TGI (NCI-H23 lung): 12.4 µM | GI50 (OVCAR-4 ovarian): 17.1 µM | TGI (OVCAR-4 ovarian): 39.9 µM
